Laboratory results from patent EP3492067A1, “TYPE-17 COLLAGEN PRODUCTION PROMOTER” (Tomoike Industrial (H.K.) Limited, priority 2016, dated 2018).
Converted amounts (≈) assume the structure as drawn.

Experiments:
Type-17 collagen [1] = details: eft-400 skin model
Method: (§1) A tissue containing DMSO was prepared as a control.
(§2) The lysates of cultured tissue were subjected to western blotting using an anti-Type-17 collagen antibody (ab95123, Abcam).

physchem = details: distilled water
Method: (§3) A test for confirming water solubility of the pterostilbene glycoside described above was performed. More specifically, solubility in 100 ml of distilled water at room temperature was measured. Pterostilbene (aglycone) was used as a control.

Type-17 collagen [2] = test: Western blotting of Type-17 collagen protein production in skin model cells; details: Homo sapiens, 168 h, read-out: expression amount of Type-17 collagen, increase in comparison with the control
Method: as §1, §2

[3] = Water solubility test in distilled water
Method: as §3

Row | SMILES | amount of Type-17 collagen contained in skin model cells, increase compared with the control (Ctrl) (Type-17 collagen [1]) | solubility (physchem) | fold induction at 25 µM (Type-17 collagen [2]) | fold induction at 50 µM (Type-17 collagen [2]) | solubility [3]
1 | COc1cc(/C=C/c2ccc(O[C@@H]3O[C@H](CO)[C@@H](O[C@H]4O[C@H](CO)[C@@H](O)[C@H](O)[C@H]4O)[C@H](O)[C@H]3O)cc2)cc(OC)c1 [pterostilbene diglycoside] | 1.2 times | ~13 µg/mL (≈ 22.4 µM) |  |  | 
2 | COc1cc(/C=C/c2ccc(O[C@@H]3O[C@H](CO)[C@@H](O)[C@H](O)[C@H]3O)cc2)cc(OC)c1 [pterostilbene monoglycoside] |  | ~60 µg/mL (≈ 143 µM) | ~1.4 | ~1.6 | 
3 | COc1cc(/C=C/c2ccc(O[C@@H]3O[C@H](CO)[C@@H](O[C@H]4O[C@H](CO)[C@@H](O[C@H]5O[C@H](CO)[C@@H](O)[C@H](O)[C@H]5O)[C@H](O)[C@H]4O)[C@H](O)[C@H]3O)cc2)cc(OC)c1 [pterostilbene triglycoside] | 1.6 times | ~300000 µg/mL (≈ 404000 µM) |  |  | 
4 | COc1cc(/C=C/c2ccc(O)cc2)cc(OC)c1 [pterostilbene, Pterostilbene] |  |  | ~1.1 | ~1.4 | ~5 µg/mL (≈ 19.5 µM)
